Assay: xn = mol fraction of the nth substance listed
Conditions: 100 kPa, Liquid; for electrical conductivity: Direct current cell with electrodes; for mass density: Vibrating tube method; for viscosity: Concentric cylinders viscometry

[Cl][Fe]([Cl])[Cl] [ferric chloride] + CCCCn1cc[n+](C)c1.[Cl-]
Conditions | electrical conductivity [S/m] | mass density [kg/m3] | viscosity [mPa·s]
293.15 K, x1 = 0.3704 | 0.1033 | 1279.5 | –
293.15 K, x1 = 0.4 | 0.172 | 1299.3 | –
293.15 K, x1 = 0.4348 | 0.306 | 1322.8 | –
293.15 K, x1 = 0.4545 | 0.406 | 1337.1 | –
293.15 K, x1 = 0.4762 | 0.541 | 1352.4 | –
293.15 K, x1 = 0.5 | 0.722 | 1369.9 | –
293.15 K, x1 = 0.5238 | 0.675 | 1391.6 | –
293.15 K, x1 = 0.5652 | 0.626 | 1433.4 | –
293.15 K, x1 = 0.6 | 0.604 | 1468.1 | –
298.15 K, x1 = 0.3704 | 0.1436 | 1275.8 | 195.6
298.15 K, x1 = 0.4 | 0.228 | 1295.2 | 123
298.15 K, x1 = 0.4348 | 0.387 | 1318.7 | 70.2
298.15 K, x1 = 0.4545 | 0.502 | 1332.9 | 51.1
298.15 K, x1 = 0.4762 | 0.658 | 1348.3 | 38.7
298.15 K, x1 = 0.5 | 0.864 | 1365.7 | 31.2
298.15 K, x1 = 0.5238 | 0.809 | 1387.4 | 30.1
298.15 K, x1 = 0.5652 | 0.747 | 1428.8 | 28.4
298.15 K, x1 = 0.6 | 0.719 | 1463.5 | 27.4
303.15 K, x1 = 0.3704 | 0.192 | 1271.9 | –
303.15 K, x1 = 0.4 | 0.295 | 1291.2 | –
303.15 K, x1 = 0.4348 | 0.478 | 1314.4 | –
303.15 K, x1 = 0.4545 | 0.61 | 1328.8 | –
303.15 K, x1 = 0.4762 | 0.786 | 1343.8 | –
303.15 K, x1 = 0.5 | 1.011 | 1361.4 | –
303.15 K, x1 = 0.5238 | 0.952 | 1383.4 | –
303.15 K, x1 = 0.5652 | 0.878 | 1424.3 | –
303.15 K, x1 = 0.6 | 0.84 | 1458.4 | –
308.15 K, x1 = 0.3704 | 0.25 | 1268.1 | –
308.15 K, x1 = 0.4 | 0.371 | 1287.4 | –
308.15 K, x1 = 0.4348 | 0.582 | 1310.2 | –
308.15 K, x1 = 0.4545 | 0.728 | 1324.8 | –
308.15 K, x1 = 0.4762 | 0.926 | 1339.7 | –
308.15 K, x1 = 0.5 | 1.18 | 1357.3 | –
308.15 K, x1 = 0.5238 | 1.105 | 1378.9 | –
308.15 K, x1 = 0.5652 | 1.017 | 1420 | –
308.15 K, x1 = 0.6 | 0.973 | 1454.3 | –
313.15 K, x1 = 0.3704 | 0.316 | 1264.2 | –
313.15 K, x1 = 0.4 | 0.457 | 1283.3 | –
313.15 K, x1 = 0.4348 | 0.696 | 1306.5 | –
313.15 K, x1 = 0.4545 | 0.858 | 1320.6 | –
313.15 K, x1 = 0.4762 | 1.07 | 1335.6 | –
313.15 K, x1 = 0.5 | 1.35 | 1353.1 | –
313.15 K, x1 = 0.5238 | 1.26 | 1374.5 | –
313.15 K, x1 = 0.5652 | 1.16 | 1415.6 | –
313.15 K, x1 = 0.6 | 1.114 | 1449.7 | –
318.15 K, x1 = 0.3704 | 0.394 | 1260.6 | –
318.15 K, x1 = 0.4 | 0.556 | 1279.6 | –
318.15 K, x1 = 0.4348 | 0.823 | 1302.4 | –
318.15 K, x1 = 0.4545 | 0.998 | 1316.7 | –
318.15 K, x1 = 0.4762 | 1.233 | 1331.6 | –
318.15 K, x1 = 0.5 | 1.535 | 1349 | –
318.15 K, x1 = 0.5238 | 1.44 | 1370.4 | –
318.15 K, x1 = 0.5652 | 1.325 | 1411.2 | –
318.15 K, x1 = 0.6 | 1.26 | 1445.3 | –
323.15 K, x1 = 0.3704 | 0.483 | 1256.7 | –
323.15 K, x1 = 0.4 | 0.666 | 1275.7 | –
323.15 K, x1 = 0.4348 | 0.961 | 1298.5 | –
323.15 K, x1 = 0.4545 | 1.15 | 1312.6 | –
323.15 K, x1 = 0.4762 | 1.4 | 1327.5 | –
323.15 K, x1 = 0.5 | 1.726 | 1344.7 | –
323.15 K, x1 = 0.5238 | 1.623 | 1366.2 | –
323.15 K, x1 = 0.5652 | 1.5 | 1406.7 | –
323.15 K, x1 = 0.6 | 1.423 | 1440.7 | –
328.15 K, x1 = 0.3704 | 0.581 | 1253 | –
328.15 K, x1 = 0.4 | 0.783 | 1271.8 | –
328.15 K, x1 = 0.4348 | 1.108 | 1294.6 | –
328.15 K, x1 = 0.4545 | 1.311 | 1308.7 | –
328.15 K, x1 = 0.4762 | 1.58 | 1323.3 | –
328.15 K, x1 = 0.5 | 1.929 | 1340.7 | –
328.15 K, x1 = 0.5238 | 1.812 | 1361.9 | –
328.15 K, x1 = 0.5652 | 1.67 | 1402.4 | –
328.15 K, x1 = 0.6 | 1.59 | 1436.3 | –
333.15 K, x1 = 0.3704 | 0.691 | 1249.2 | –
333.15 K, x1 = 0.4 | 0.913 | 1267.8 | –
333.15 K, x1 = 0.4348 | 1.27 | 1290.7 | –
333.15 K, x1 = 0.4545 | 1.48 | 1304.6 | –
333.15 K, x1 = 0.4762 | 1.76 | 1319.5 | –
333.15 K, x1 = 0.5 | 2.14 | 1336.5 | –
333.15 K, x1 = 0.5238 | 2.014 | 1357.7 | –
333.15 K, x1 = 0.5652 | 1.85 | 1398 | –
333.15 K, x1 = 0.6 | 1.76 | 1431.8 | –
338.15 K, x1 = 0.3704 | 0.814 | 1245.5 | –
338.15 K, x1 = 0.4 | 1.05 | 1263.9 | –
338.15 K, x1 = 0.4348 | 1.436 | 1286.8 | –
338.15 K, x1 = 0.4545 | 1.66 | 1300.6 | –
338.15 K, x1 = 0.4762 | 1.96 | 1315.5 | –
338.15 K, x1 = 0.5 | 2.35 | 1332.3 | –
338.15 K, x1 = 0.5238 | 2.219 | 1353.2 | –
338.15 K, x1 = 0.5652 | 2.042 | 1393.7 | –
338.15 K, x1 = 0.6 | 1.936 | 1427.3 | –
343.15 K, x1 = 0.3704 | 0.949 | 1241 | –
343.15 K, x1 = 0.4 | 1.208 | 1260.3 | –
343.15 K, x1 = 0.4348 | 1.614 | 1282.6 | –
343.15 K, x1 = 0.4545 | 1.85 | 1296.7 | –
343.15 K, x1 = 0.4762 | 2.16 | 1311.3 | –
343.15 K, x1 = 0.5 | 2.58 | 1328.3 | –
343.15 K, x1 = 0.5238 | 2.435 | 1349.2 | –
343.15 K, x1 = 0.5652 | 2.24 | 1389.3 | –
343.15 K, x1 = 0.6 | 2.12 | 1422.9 | –
